Experimental data published in PubChem BioAssay AID1963963 (Molecular Pharmacology Branch, DTP, NCI, 2024).

Test system: 958667-338-R-J2-PDC tumor spheroids viability
Assay: Anticancer human tumor 958667-338-R-J2-PDC patient-derived colon adenocarcinoma cell line growth inhibition [PI3K]
Conditions: spheroids with HUVEC and MSC; for IC50: curve of first compound; for viability, T/C: stronger effect = lower value
Method in brief: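 Three cell types, namely tumor cells, endothelial cells and mesenchymal stem cells, formed each spheroid. Combinations with four PI3K inhibitors were screened at clinically achievable concentrations decreasing by half-log, and spheroid viability was recorded.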

[1] = second compound 0.00316 µM, first compound 0.0316 µM
[2] = second compound 0.00316 µM, first compound 0.1 µM
[3] = second compound 0.00316 µM, first compound 0.316 µM
[4] = second compound 0.00316 µM, first compound 1 µM
[5] = second compound 0.00316 µM, first compound 3.16 µM
[6] = second compound 0.00316 µM, first compound 10 µM
[7] = second compound 0.01 µM, first compound 0.0316 µM
[8] = second compound 0.01 µM, first compound 0.1 µM
[9] = second compound 0.01 µM, first compound 0.316 µM
[10] = second compound 0.01 µM, first compound 1 µM
[11] = second compound 0.01 µM, first compound 3.16 µM
[12] = second compound 0.01 µM, first compound 10 µM
[13] = second compound 0.0316 µM, first compound 0.0316 µM
[14] = second compound 0.0316 µM, first compound 0.1 µM
[15] = second compound 0.0316 µM, first compound 0.316 µM
[16] = second compound 0.0316 µM, first compound 1 µM
[17] = second compound 0.0316 µM, first compound 3.16 µM
[18] = second compound 0.0316 µM, first compound 10 µM
[19] = second compound 0.1 µM, first compound 0.0316 µM
[20] = second compound 0.1 µM, first compound 0.1 µM
[21] = second compound 0.1 µM, first compound 0.316 µM
[22] = second compound 0.1 µM, first compound 1 µM
[23] = second compound 0.1 µM, first compound 3.16 µM
[24] = second compound 0.1 µM, first compound 10 µM
[25] = second compound 0.316 µM, first compound 0.0316 µM
[26] = second compound 0.316 µM, first compound 0.1 µM
[27] = second compound 0.316 µM, first compound 0.316 µM
[28] = second compound 0.316 µM, first compound 1 µM
[29] = second compound 0.316 µM, first compound 3.16 µM
[30] = second compound 0.316 µM, first compound 10 µM
[31] = second compound 1 µM, first compound 0.0316 µM
[32] = second compound 1 µM, first compound 0.1 µM
[33] = second compound 1 µM, first compound 0.316 µM
[34] = second compound 1 µM, first compound 1 µM
[35] = second compound 1 µM, first compound 3.16 µM
[36] = second compound 1 µM, first compound 10 µM
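Further: spheroids exposed to compounds for seven days before readout.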

Compound Cn1ncc(Cl)c1-c1cc(C(=O)NC(CN)Cc2cccc(F)c2)sc1Cl (centres undefined) + COc1c(OCCCN2CCOCC2)ccc2c3n(c(=NC(=O)c4cnc(N)nc4)nc12)CCN3 has an IC50 (second compound 0.00316 µM) of 3.41 µM, an IC50 (second compound 0.01 µM) of 3.24 µM and an IC50 (second compound 0.0316 µM) of 1.7 µM. For the same compound, the IC50 (second compound 0.1 µM) was 0.696 µM, the IC50 (second compound 0.316 µM) was under 0.0316 µM and the IC50 (second compound 1 µM) was under 0.0316 µM. For the same compound, the viability, T/C [1] was 89.1%, the viability, T/C [2] was 109% and the viability, T/C [3] was 75.5%. The viability, T/C [4] was 76.2%, the viability, T/C [5] was 46.4% and the viability, T/C [6] was 43%. For the same compound, the viability, T/C [7] was 88.9%, the viability, T/C [8] was 76.7% and the viability, T/C [9] was 87.8%. It also gave a viability, T/C [10] of 75.5%, a viability, T/C [11] of 50.6% and a viability, T/C [12] of 32%. It also gave a viability, T/C [13] of 90.3%, a viability, T/C [14] of 74.6% and a viability, T/C [15] of 76.2%. It also gave a viability, T/C [16] of 58.6%, a viability, T/C [17] of 38.9% and a viability, T/C [18] of 26.5%. For the same compound, the viability, T/C [19] was 59.4%, the viability, T/C [20] was 65.7% and the viability, T/C [21] was 64.5%. The viability, T/C [22] was 43.5%, the viability, T/C [23] was 27.9% and the viability, T/C [24] was 21.1%. For the same compound, the viability, T/C [25] was 44.9%, the viability, T/C [26] was 38.8% and the viability, T/C [27] was 32.9%. It also gave a viability, T/C [28] of 31.6%, a viability, T/C [29] of 21.1% and a viability, T/C [30] of 14.1%. For the same compound, the viability, T/C [31] was 20.8%, the viability, T/C [32] was 18.2% and the viability, T/C [33] was 19.9%. The viability, T/C [34] was 20.5%, the viability, T/C [35] was 15.9% and the viability, T/C [36] was 12.5%.
With Cn1nccc1Nc1nccc(-c2ccn(C(CO)c3ccc(Cl)c(F)c3)c(=O)c2)n1 (centres undefined) + COc1c(OCCCN2CCOCC2)ccc2c3n(c(=NC(=O)c4cnc(N)nc4)nc12)CCN3 the IC50 (second compound 0.00316 µM) was 9.71 µM, the IC50 (second compound 0.01 µM) was 7.7 µM and the IC50 (second compound 0.0316 µM) was 2.72 µM. It also gave an IC50 (second compound 0.1 µM) of 1.27 µM, an IC50 (second compound 0.316 µM) of under 0.0316 µM and an IC50 (second compound 1 µM) of under 0.0316 µM. The viability, T/C [1] was 93.8%, the viability, T/C [2] was 98.4% and the viability, T/C [3] was 97.9%. The viability, T/C [4] was 83.5%, the viability, T/C [5] was 67.1% and the viability, T/C [6] was 49.3%. The viability, T/C [7] was 98.6%, the viability, T/C [8] was 100% and the viability, T/C [9] was 99.1%. It also gave a viability, T/C [10] of 83.3%, a viability, T/C [11] of 81.6% and a viability, T/C [12] of 41.2%. It also gave a viability, T/C [13] of 80.3%, a viability, T/C [14] of 86.7% and a viability, T/C [15] of 83.1%. It also gave a viability, T/C [16] of 57.1%, a viability, T/C [17] of 52.3% and a viability, T/C [18] of 25.6%. The viability, T/C [19] was 58.6%, the viability, T/C [20] was 55.4% and the viability, T/C [21] was 60%. For the same compound, the viability, T/C [22] was 55.6%, the viability, T/C [23] was 27.7% and the viability, T/C [24] was 12%. For the same compound, the viability, T/C [25] was 30.9%, the viability, T/C [26] was 42.4% and the viability, T/C [27] was 28.8%. For the same compound, the viability, T/C [28] was 31.9%, the viability, T/C [29] was 15.4% and the viability, T/C [30] was 1.75%. For the same compound, the viability, T/C [31] was 16.9%, the viability, T/C [32] was 13.1% and the viability, T/C [33] was 18.1%. The viability, T/C [34] was 13.6%, the viability, T/C [35] was 3.23% and the viability, T/C [36] was 1.67%.
